From ChEMBL document CHEMBL1152521, “Synthesis and biological evaluation of radioiodinated 2,5-diphenyl-1,3,4-oxadiazoles for detecting beta-amyloid plaques in the brain” (Bioorg Med Chem, 2009)

How the values were obtained:
[1] = Displacement of [125I]IMPY from aggregated amyloid beta (1-42) by gamma counting
[2] = Octanol-phosphate buffer partition coefficient, log P at pH 7.4 by gamma counting of radioactivity

| SMILES | Ki [1] [nM] | logD [2] |
| --- | --- | --- |
| OCCOc1ccc(-c2nnc(-c3ccc(I)cc3)o2)cc1 | 282 |  |
| COc1ccc(-c2nc(-c3ccc(I)cc3)no2)cc1 |  | 3.37 |
